Patent US6995140B1, “Peptides and polypeptides useful for regenerating the nervous system” (NUCLEICA, priority 1997, dated 2006)
Where no end group is shown, it is not given here.

Tests used:
cortical neuronal cells = test: Dissociated cell cultures of cerebral hemispheres of 8-day old chicken embryos (cortical neurons); type: cell-based; details: for adherent cells carrying neurites relative to controls (controls 24.4%): 4 days of culture; for overall effect on cortical neuron cultures (aggregation, adhesion, neuritic growth): in comparison with peptide SEQ ID NO: 8
Procedure: Dissociated Cell Cultures of Cerebral Hemispheres of 8-Day Old Chicken Embryos
The neuronal cultures are obtained from 8-day old chicken embryos. The cerebral hemispheres, after removing the meninges, are cut into small pieces and enzymatically dissociated with 0.25% of trypsin in a PBS saline buffer free of calcium and of magnesium for 15 minutes at 37° C.
The cells are centrifuged at 200 g for 5 minutes in DMEM medium with 20% FCS for the trypsin inactivation. The cells are then filtered on nylon membrane (pore size: 48 microns) and collected in a chemically defined medium free of serum containing a 1/1 mixture of DMEM and Ham's F12 medium supplemented with glutamine (4 mM), glucose (33 mM), penicillin G (50 U/ml), streptomycin sulfate (50 μg/ml) and an N2 supplement of Bottenstein and Sato (1979): putrescine (100 μM), sodium selenite (30 nM), human transferrin (50 μg/ml), progesterone (20 nM), insulin (5 μg/ml) and β-estradiol (1 pM). All the N2 supplements were bought from Sigma.
The cells are plated at a density of 7.5×10^4 cells/cm^2 on 24-well plastic plates. For some experiments, the plastic plates are coated either with fibronectin (24 μg/ml) or with thrombospondin (20 μg/ml). The cultures are incubated at 37° C. and under air containing 10% CO2. The medium is not changed during the experiment. These cultures consist of nearly 95% of neurons.
Moreover, the effect of the peptides according to the present invention SEQ ID NO: 8 and NO: 11 on cultures at low density was studied.

spinal cord neurons = test: Cell cultures of spinal neurons; type: cell-based, chicken; details: compared with controls
Procedure: Cell Cultures of Spinal Neurons
The spinal cords of 6-day old chicken embryos are dissected, freed of their meningeal membrane and cut into small pieces in a phosphate buffer (PBS) free of calcium and of magnesium. After incubation with 0.25% trypsin for 10 minutes at 37° C., the tissue is centrifuged at 200 g for 4 minutes in a growth medium containing 20% fetal calf serum in order to stop the trypsinization. The cells are then dissociated by repeated trituration using a Pasteur pipette and resuspended in a chemically defined medium free of serum as above.
The cells are plated at a density of 7.5×10^4 cells/cm^2 on 24-well plastic culture plates. The cultures are incubated at 37° C. and under air containing 10% CO2. The medium is not changed during the experiments and it has already been shown that this type of cell population contained more than 93% of neurons.

[1] = system: NIB104 neuroblastoma cells; test: Culture of cells derived from the NIB104 neuroblastoma; type: cell-based
Procedure: The cells derived from the NIB104 neuroblastoma were cultured in 24-well plastic plates previously coated with a film of poly-L-lysine, under conditions similar to those for the primary cultures.

[2] = Solubility of the peptide; type: physicochemical; details: basic aqueous medium
[3] = low density culture, morphometric analysis
[4] = morphometric analysis, plastic, versus control
[5] = plates coated with thrombospondin and fibronectin, compared with the controls

Substance	morphology of the neuronal culture (cortical neuronal cells; after 5 days of culture, plastic substrate coated with the peptide)	increase in the number of neuronal aggregates (cortical neuronal cells; between control culture and culture treated with the peptide)	adherent cells carrying neurites relative to controls (controls 24.4%) (cortical neuronal cells; low density culture)	length of the neurites (cortical neuronal cells; [3])	number of neurites per cell (cortical neuronal cells; [3])	length of the neurites per aggregate (cortical neuronal cells; [4])	number of neurites per aggregate (cortical neuronal cells; [4])	length of the neurites per aggregate (cortical neuronal cells; [5])	number of neurites per aggregate (cortical neuronal cells; [5])	adhesion of the cells to the substrate (cortical neuronal cells; substrate coated with the peptide, 5 days of culture, versus control without peptide)	neuritic growth and fasciculation of the neurites (spinal cord neurons)	number of synaptic contacts between the neurites (spinal cord neurons)	distribution (aggregation) of the neurons (spinal cord neurons; in vitro)	appearance (phenotype) of the cells ([1]; in the presence of the peptide)	neuritic growth ([1]; increasing concentrations of peptide in the culture medium, morphometric analysis)	number of NIB104 neuroblastoma cells ([1]; versus control cultures)	solubility [2]	overall effect on cortical neuron cultures (aggregation, adhesion, neuritic growth) (cortical neuronal cells)
WSGWSSCSRSCG (cysteine pairing not given here) [peptide SEQ ID NO: 8]	aggregate and are essentially connected by bundles of long and thick neurites	9.3%	2 times	significant increase	significant increase	significant increase	significant increase	significantly increased	significantly increased	adhere well to the substrate	prominent neuritic growths forming a network without fasciculation of the neurites	increase in the number of synaptic contacts	remain distributed for at least one week	acquire a characteristic neuronal phenotype	gradually increases	considerably less numerous	soluble in basic aqueous medium	
W-G-P-C-S-V-S-C-G- (WGPCSVSCG) [peptide SEQ ID NO: 11, second peptide according to the invention]			2.5 times		not													lower but, nevertheless, significant results
R-K-A-R- (RKAR) [peptide SEQ ID NO: 13, peptide for comparison, reference compound]																		no representative result
